Test results taken from patent US20040242459A1 (priority 2001, published 2004).

Legend:
[1] = molecular target: T1, recombinant human PPARγ (GST-PPARγ) (Homo sapiens, UniProt P37231); assay: Scintillation Proximity Assay, displacement of [3H2]Compound A from PPARγ; assay type: binding; conditions: SPA, radioligand
T1 construct: The full length human cDNA for PPARγ 2 was subcloned into the pGEX-2 T expression vector; made in house; host or cells: E. coli
T1 sequence (P37231 1-505): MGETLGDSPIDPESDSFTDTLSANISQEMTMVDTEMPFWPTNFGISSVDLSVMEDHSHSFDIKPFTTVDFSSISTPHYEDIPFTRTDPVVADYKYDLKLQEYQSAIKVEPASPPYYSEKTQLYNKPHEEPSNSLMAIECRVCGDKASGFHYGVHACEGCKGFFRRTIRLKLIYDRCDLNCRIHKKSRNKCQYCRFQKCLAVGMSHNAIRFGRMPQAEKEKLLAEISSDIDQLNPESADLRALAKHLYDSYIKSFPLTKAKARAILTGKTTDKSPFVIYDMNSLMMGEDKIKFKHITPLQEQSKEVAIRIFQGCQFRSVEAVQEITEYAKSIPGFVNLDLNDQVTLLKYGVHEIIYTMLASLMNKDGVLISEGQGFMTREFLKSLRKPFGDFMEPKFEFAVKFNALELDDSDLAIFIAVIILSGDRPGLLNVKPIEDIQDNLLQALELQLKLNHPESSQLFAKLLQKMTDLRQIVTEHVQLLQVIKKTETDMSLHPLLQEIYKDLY
Text: (§1) As an approach to identifying human PPAR agonists, a Scintillation Proximity Assay was used to characterize PPAR-γ, PPAR-δ, and PPAR-α ligands.
(§2) Human PPARγ2, human PPARδ and human PPARα were expressed as GST-fusion proteins in E. coli. The full length human cDNA for PPARγ 2 was subcloned into the pGEX-2 T expression vector (Amersham Pharmacia Biotech, Inc.). The full length human cDNAs for PPARδ and PPARα were subcloned into the pGEX-KT expression vector (Amersham Pharmacia Biotech, Inc.). E. coli containing the respective plasmids were propagated, induced, and harvested by centrifugation. The resuspended pellet was broken in a French press and debris removed by centrifugation. Recombinant human PPAR receptors were purified by affinity chromatography on glutathione sepharose. After application to the column, and one wash, receptor was eluted with glutathione. Glycerol (10%) was added to stabilize the receptor and aliquots were stored at −80° C.
(§3) After incubation for ˜16 h at 15° C. with shaking, the assay plates were counted in a Packard Topcount with quench correction.

[2] = molecular target: T2, recombinant human PPARα (GST-PPARα) (Homo sapiens, UniProt Q07869); assay: Scintillation Proximity Assay, displacement of [3H2]Compound A from PPARα; assay type: binding
T2 construct: The full length human cDNAs for PPARδ and PPARα were subcloned into the pGEX-KT expression vector; made in house; host or cells: E. coli
T2 sequence (Q07869 1-468): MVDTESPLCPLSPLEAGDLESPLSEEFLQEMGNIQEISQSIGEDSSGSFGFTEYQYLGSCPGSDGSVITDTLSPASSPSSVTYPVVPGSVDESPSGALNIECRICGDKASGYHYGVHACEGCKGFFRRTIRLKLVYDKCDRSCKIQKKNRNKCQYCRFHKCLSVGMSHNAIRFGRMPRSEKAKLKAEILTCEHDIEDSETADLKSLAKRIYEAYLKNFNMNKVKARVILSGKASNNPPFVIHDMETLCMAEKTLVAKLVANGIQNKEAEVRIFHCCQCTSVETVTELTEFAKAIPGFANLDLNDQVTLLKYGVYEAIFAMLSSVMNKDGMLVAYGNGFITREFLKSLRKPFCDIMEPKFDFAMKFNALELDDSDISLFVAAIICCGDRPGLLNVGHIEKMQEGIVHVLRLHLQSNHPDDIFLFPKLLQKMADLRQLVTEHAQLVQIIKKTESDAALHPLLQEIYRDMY
Text: as §1, §2, §3

[3] = molecular target: T3, recombinant human PPARδ (GST-PPARδ) (Homo sapiens, UniProt Q03181); assay: Scintillation Proximity Assay, displacement of [3H2]Compound B from PPARδ; assay type: binding; conditions: human PPARδ binding; read-out: IC50 (μM: SPA or BND) Delta
T3 construct: The full length human cDNAs for PPARδ and PPARα were subcloned into the pGEX-KT expression vector; made in house; host or cells: E. coli
T3 sequence (Q03181 1-441): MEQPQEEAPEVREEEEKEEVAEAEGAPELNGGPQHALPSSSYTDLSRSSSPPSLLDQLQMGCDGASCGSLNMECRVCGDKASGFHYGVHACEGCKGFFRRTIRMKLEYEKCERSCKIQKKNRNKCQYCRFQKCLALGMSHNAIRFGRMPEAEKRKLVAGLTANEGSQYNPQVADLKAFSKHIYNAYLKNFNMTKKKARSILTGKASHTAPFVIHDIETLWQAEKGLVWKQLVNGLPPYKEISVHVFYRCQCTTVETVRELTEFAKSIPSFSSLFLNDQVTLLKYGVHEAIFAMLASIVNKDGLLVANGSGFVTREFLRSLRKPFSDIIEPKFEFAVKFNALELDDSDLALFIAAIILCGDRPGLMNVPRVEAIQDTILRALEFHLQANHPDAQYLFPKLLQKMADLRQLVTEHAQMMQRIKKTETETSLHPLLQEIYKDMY
Text: as §1, §2, §3

[4] = system: adjuvant-induced arthritis in female Lewis rats
Protocol: Nine groups of 10 rats each were injected with an emulsion containing 0.5 mg of Mycobacterium butyricum in 0.1 ml of light mineral oil, and a negative control group of 10 rats was not injected with adjuvant. Body weights, primary (injected) and contralateral (non-injected) paw volumes (determined by mercury displacement plethysmography) and lateral radiographs (obtained under Ketamine and Xylazine anesthesia) were determined before (day-1) and at various time points including 21 days following adjuvant injection. The rats were anesthetized with an intramuscular injection of 0.03-0.1 ml of a combination of Ketamine (87 mg/kg) and Xylazine (13 mg/kg) for radiographs and injection of adjuvant. Lateral to medial radiographs were made of both hind paws on days 0 and 21 for using the Faxitron (45 kVp, 30 seconds or 45 kVp, 1 second) and Kodak X-OMAT TL film, and were developed in an automatic processor. […] Specific criteria were used to establish the numerical grade of severity for each radiographic change. The maximum possible score per foot was 26. Compounds or vehicle were administered prophylactically beginning post injection of adjuvant and continuing for 21 days. The Compounds were prepared weekly, refrigerated in the dark until used, and vortex mixed immediately prior to administration. […] The liver, thymus and spleens of all rats were removed and weighed and both hind paws were removed and radiographed.
Two-factor (‘treatment’ and ‘time’) analysis of variance with repeated measures on ‘time’ were applied to the percent changes for body weight and foot volumes and to the rank-transformed radiographic total scores. A post hoc Dunnett's test was conducted to compare the effect of treatments to vehicle. A one-way analysis of variance was applied to the thymic and spleen weights followed by the Dunnett's test to compare the effect of treatments to vehicle.
Compounds or vehicle (0.5% Methocel in sterile water) were administered by oral gavage once daily for 21 days following induction of arthritis in female Lewis rats via the sub plantar injection of 0.1 ml of light mineral oil containing 0.5 mg of Mycobacterium butyricum. Control animals were not injected with adjuvant. Body weights were measured 1 day prior to (i.e. day 0) and at 14 and 21 days post induction of arthritis. The data in Table 1 represent the mean increase or decrease in body weight ±1 standard deviation for groups of 9 to 10 animals.
Compounds or vehicle (0.5% Methocel in sterile water) were administered by oral gavage once daily for 21 days following induction of arthritis in female Lewis rats via the sub plantar injection of 0.1 ml of light mineral oil containing 0.5 mg of Mycobacterium butyricum. Control animals were not injected with adjuvant.
(§4) Injected foot volumes were measured by mercury displacement plethysmography prior to induction of arthritis, and on days 4, 14 and 21 post induction of arthritis. The data represent the mean increase in foot volume ±1 standard deviation for groups of 9 to 10 animals. The extent of paw swelling in compound-treated animals was compared to the mean of that in the vehicle-treated group, and percentage inhibition was calculated for each dose level of compound.
as §4, with “Contralateral foot” for “Injected foot”, “prior to,” for “prior to induction of arthritis,”, “and at” for “and on”, “days” for “days 4,”
[…] Data represent the mean weights of organs in mg ±1 standard deviation for groups of 9 to 10 animals.
Total radiographic scores were derived from examination of lateral radiographs obtained prior to, and on day 21 post induction of arthritis.

[5] = system: PPAR-α, PPAR-γ and PPAR-δ; assay: Classification of ligands according to their PPAR activity (Table A); parameters: species or system human
[6] = weight at necropsy, day of euthanasia 21 (Compound 1, indomethacin) or 15 (Compounds 2-6), mean ± SD

| SMILES | Kd [1] | Kd ([2]; SPA, radioligand) | IC50 [3] | Change in Secondary Foot Volume Day 14-0 ([4]; contralateral paw, p.o. q.d., Compounds 1, 2, 4, 6 30 mg/kg/day, Compound 3 50, Compound 5 100, indomethacin 2, mean ± SD) | Secondary Foot Volume % Inhibition Compared to Vehicle Day 14-0 ([4]; contralateral paw, same doses p.o. q.d.) | Change in Primary Foot Volume Day 4-0 ([4]; injected paw, p.o. q.d., Compounds 1, 2, 4, 6 30 mg/kg/day, Compound 3 50, Compound 5 100, indomethacin 2, mean ± SD) | Primary Foot Volume % Inhibition Compared to Vehicle Day 4-0 ([4]; injected paw, same doses p.o. q.d.) | Change in Primary Foot Volume Day 14-0 ([4]; injected paw, same doses p.o. q.d., mean ± SD) | change in body weight Day 14-0 ([4]; p.o. q.d., Compounds 1, 2, 4, 6 30 mg/kg/day, Compound 3 50, Compound 5 100, indomethacin 2 mg/kg/day, mean ± SD) | prevention of swelling of primary or secondary paws ([4]; up to day 14, rats then euthanized) | Spleen [4, 6] | Thymus [4, 6] | PPAR Activity [5] | IC50 ([2]; human PPARα binding, read-out: IC50 (μM: SPA or BND) Alpha) |
| --- | --- | --- | --- | --- | --- | --- | --- | --- | --- | --- | --- | --- | --- | --- |
| CCCc1c(OCCCCOc2cccc(CC(=O)O)c2)ccc2c(-c3ccccc3)noc12 [Compound A, (3-(4-(3-phenyl-7-propyl-6-benz-[4,5]-isoxazoloxy)butyloxy))phenylacetic acid, reference compound] | ~2.7 nM | ~10 nM |  |  |  |  |  |  |  |  |  |  |  |  |
| O=C(O)c1c(Sc2ccccc2)c2cc(Cl)ccc2n1Cc1ccc(Cl)cc1 [Compound 3] |  |  | > 50 µM | 869 ± 291 µL | 0% | 1853 ± 262 µL | 0% | 2606 ± 587 µL | −6.6 ± 6.1 grams | failed to prevent swelling of either the primary or secondary paws | 720.5 ± 155.1 mg | 152.7 ± 27.9 mg | Gamma Antagonist | > 10 µM |
